From patent US6548543B1, “Remedies or preventives containing cyclopentenone compounds as the active ingredient” (Takara Shuzo Co., Ltd., priority 1998, dated 2003)

Assays:
[1] = test system: 70-kDa heat shock protein; test: Induction of 70-kDa heat shock protein in HL-60 cells (Western blot); format: cell-based; design: key to Degree of induction of 70-kDa heat shock protein: − means that no induction was observed; ± means that a slight induction was observed; + represents the induction level; ++: Increased number of + means increased induction; +++: Increased number of + means increased induction; conditions: HL-60, 6 hours
Experimental: (1) 5 ml of RPMI 1640 medium containing 10% fetal calf serum and HL-60 (ATCC CCL-240) cells at a concentration of 2×10^5 cells/ml was placed in each well of a 6-well plate. The plate was incubated at 37° C. for 24 hours in the presence of 5% CO2. Dipropionylcyclopentenone, diisobutyrylcyclopentenone or di-2-hexenoylcyclopentenone at a final concentration of 0, 0.63, 1.3, 2.5, 5, 10 or 20 μM was then added thereto. The incubation was continued for additional 6 hours.
After incubation, the cell number was counted. The cells were harvested by centrifugation, washed with PBS to prepare cells treated with one of the samples. Cells that were cultured in the same manner after heated at 45° C. for 10 minutes were also prepared.
These treated cells were used for SDS-PAGE according to the method as described in Molecular Cloning [Cold Spring Harbor Laboratory Press (1989)]. The treated cells were suspended in SDS-PAGE Sample buffer at a concentration of 2.5×10^6 cells/ml. The cell suspensions were treated at 100° C. for 10 minutes. 5 μl each of the cell suspensions was applied to two SDS-PAGE gels (5% stacking gel, 10% separation gel) and electrophoresed. One of the gels was subjected to Coomassie staining. The other gel was blotted onto a polyvinylidene difluoride transfer membrane (Immobilon™, Millipore, Cat. #IPVH000-10). The membrane was blocked at 4° C. overnight using Block Ace (Dainippon Pharmaceutical, Cat. #UK-B25).
The blocked membrane was reacted with a monoclonal antibody HSP72/73(Ab-1) (Oncogene Research Products, Cat. #HSP01), which specifically reacts with heat-inducible 70-kDa heat shock protein. The membrane was washed with TBS containing 0.05% Tween 20 followed by TBS. The membrane was then reacted with a peroxidase-conjugated secondary antibody HRP-Rabbit Anti-Mouse IgG (H+L) (Zymed Laboratories, Inc., Cat. #61-6520), and then washed as described above. The membrane reacted with the primary and secondary antibodies was reacted with a chemiluminol reagent Renaissance™ (Dupont NEN, Cat. #NEL-100). The membrane was then exposed to an X-ray film to confirm the induction of 70-kDa heat shock protein.

[2] = test system: adhesion between vascular endothelial cells and HL-60 cells; test: Adhesion of HL-60 cells to TNF-α-stimulated vascular endothelial cells; format: cell-based, Human; conditions: for Adhesion rate: TNF-α-stimulated endothelial cells
Experimental: Human vascular endothelial cells (sold by Sanko Junyaku) suspended in RPMI-1640 medium (Gibco) containing 10% FCS (HyClone) at a concentration of 1×10^5 cells/ml. 100 μl/well of the suspension was seeded into a 96-well microtiter plate.
100 U/ml of human recombinant TNF-α (Promega) was added to monolayer of vascular endothelial cells after incubation at 37° C. for 2 days in a 5% CO2 incubator. The plate was incubated 37° C. for 6 hours in a 5% CO2 incubator to prepare vascular endothelial cells stimulated with TNF-α.
On the other hand, cyclopentenone, GM or dipropionylcyclopentenone at a varying concentration was added to HL-60 cells suspended in RPMI-1640 medium containing 10% FCS at a concentration of 1×10^6 cells/ml. The cells were cultured at 37° C. for 3 hours in a 5% CO2 incubator. After cultivation, 5 μM of 5(-and-6)-carboxyfluorescein diacetate, succinimide ester (Molecular Probe) as a fluorescent agent was added thereto and reacted at 37° C. for 10 minutes. The cells were washed twice with RPMI-1640 medium and suspended in RPMI-1640 medium containing 10% FCS to prepare a suspension of fluorescence-labeled HL-60 cells at a concentration of 1×10^6 cells/ml.
100 μl/well of the fluorescence-labeled HL-60 cells were overlaid onto the vascular endothelial cells stimulated with TNF-α. Cyclopentenone, GM or dipropionylcyclopentenone at a varying concentration was added thereto. The plate was incubated at 37° C. for 20 minutes in a 5% CO2 incubator for adhesion reaction between vascular endothelial cells and HL-60 cells.
After the adhesion reaction, the plate was washed to remove non-adhesive cells. 1% Triton X (Nacalai Tesque) was added thereto to destroy adhesive cells. The fluorescence intensity was measured using filters for 485/22 nm (excitation) and 530/25 nm (emission).
The adhesion rate which represents the ratio of cells adhered to vascular endothelial cells was determined defining the fluorescence intensity for 1×10^5 fluorescence-labeled cells as 100%.

[3] = test system: spleen lymphocytes stimulated with Con A; test: Lymphocyte blastogenesis stimulated with Con A, 3H-thymidine uptake; format: cell-based, ddY mouse; conditions: 10 μM
Experimental: (1) A spleen was taken out from ddY mouse (male, 7 weeks old, purchased from Japan SLC), finely minced and suspended in RPMI-1640 medium containing 10% FCS (HyClone) to obtain a single cell suspension. The cell suspension was seeded into a plastic Petri dish and cultured at 37° C. for 2 hours in a CO2 incubator to remove adhesive cells adhered to the dish. Non-adhesive cells were used as spleen lymphocytes. 200 μl of suspension of the spleen lymphocytes at a cell concentration of 2×10^6/ml was seeded into each well of a 96-well microtiter plate. Dipropionylcyclopentenone at a varying concentration was added to each well other than the control well. Furthermore, 5 μg of Con A (Nacalai Tesque) was added to each well. The plate was incubated at 37° C. for 1 day in a CO2 incubator. After incubation, 1 μCi of ^3H-thymidine was added to each well. After culturing for additional 1 day, the uptake into cells was measured using a liquid scintillation counter.
FIG. 7 illustrates the relationship between the concentration of dipropionylcyclopentenone and the amount of ^3H-thymidine uptake. The horizontal axis represents dipropionylcyclopentenone concentration (μM) and the vertical axis represents the ^3H-thymidine uptake (CPM). The open bar represents the ^3H-thymidine uptake without stimulation.

[4] = Single oral dose toxicity; format: in vivo; conditions: mouse, oral, single dosage of 100 mg/kg
Experimental: No toxicity is observed when a physiologically effective amount of the cyclopentenone derivative or an optical isomer thereof, or a salt thereof obtained according to the present invention is administered.

In the case of `CCC(=O)OC1C=CC(=O)C1OC(=O)CC` (stereo not shown), the “Degree of induction of 70-kDa heat shock protein” value (shortened to “Degree”) ([1]; 0.63 μM) is reported as “−”, the “Degree” value ([1]; 1.3 μM) is reported as “±” and the “Degree” value ([1]; 2.5 μM) is reported as “+”. The “Degree” value ([1]; 5 μM) was “+++”, the “Degree” value ([1]; 10 μM) was “++” and the “Degree” value ([1]; 20 μM) was “++”. The Adhesion rate ([2]; 0.1 μM) was 49.2%, the Adhesion rate ([2]; 1 μM) was 35.1% and the Adhesion rate ([2]; 10 μM) was 15.3%. For the same molecule, the Adhesion rate ([2]; 100 μM) was 15.5%, the “Suppression of TNF-α-induced increase in adhesion rate (statement)” value ([2]; 10^−7 to 10^−4 M, dose-dependent) was “suppressed” and the “Inhibition of proliferation of mouse lymphocytes stimulated with Con A (FIG. 7)” value [3] was “almost completely inhibited”. The “Death after single oral administration” value [4] was “no death was observed”.
